Source: US11725012B2, “Imidazo[1,5-a]pyrazine derivatives as PI3K δ inhibitors” (priority 2016, dated 2023)
Read-outs that look alike come from different tables or passages of the source.

Tests used:
[1] = target: recombinant PI3K (p110δ/p85α) (Homo sapiens, UniProt O00329); assay: PI3Kδ ADP-Glo kinase assay; format: biochemical
Procedure, shortened: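 ADP-Glo luminescence with recombinant p110δ/p85α and lipid kinase substrate. Compound serial dilutions preincubated 0.5 hr, ATP added, reaction 1 hr at room temperature, then ATP depletion and detection steps. IC50 from a four-parameter logistic fit of residual activity.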

[2] = target: recombinant PI3K (p110α/p85α) (Homo sapiens, UniProt P42336); assay: PI3Kα ADP-Glo kinase assay; format: biochemical
[3] = target: PI3K (p110β/p85α) (Homo sapiens, UniProt P42338); assay: PI3Kβ ADP-Glo kinase assay; format: biochemical
[4] = target: PI3K (p110γ) (Homo sapiens, UniProt P48736); assay: PI3Kγ ADP-Glo kinase assay; format: biochemical
[5] = Pharmacokinetic properties in Sprague-Dawley rats after IV and PO administration; format: in vivo; conditions: male, plasma, rat
Experimental: III. Pharmacokinetic Properties of Compounds in Sprague-Dawley Rats after Intravenous (IV) and Oral Administrations (PO)
Dose Formulation Preparation The injection dosing solution was prepared as follows: 1.0 mg of a test compound was weighted and dissolved in 0.32 mL of dimenthyl acetamide (DMA). The solution was then further diluted by 0.36 mL of ethanol and 0.32 mL of propylene glycol. The final concentration of the test compound was 1.0 mg·mL^−1.
The oral dosing solution was prepared as follows: 5.0 mg of a test compound was weighed and dispersed in […] of 0.5% methyl cellulose (MC). The final concentration of the test compound is 1 mg·mL^−1.
The animals were housed in solid bottom polypropylene cages with sterilized bedding and receive sterilized diet and sterilized water. The room was controlled and monitored for humidity (targeted mean range 40% to 70%) and temperature (targeted mean range 18° C. to 26° C.) with 10 to 20 air changes/hour. The light cycle was maintained at 12-h light and 12-h dark, Only animals that appeared to be healthy were selected for this study based on overall health, body weight, or other relevant information.
The male Sprague-Dawley rats were fasted overnight with free access to drinking water prior to treatment. On day 1, the animals were weighed and actual dose volume for each animal was calculated using the formula below: Dose Volume (mL)=[Nominal Dose (mg·kg^−1)/Dose Concentration (mg·mL^−1)]×Animal Body Weight (kg) (1)
Three rats were given a single IV dose of 1 mg·kg^−1 via tail vein injection and other three rats were given a single oral dose of 5 mg·kg^−1. The dosing solutions were freshly prepared prior to dose administration. The actual body weights and actual volume injected were recorded accordingly. Four hours after dosing, the rats were allowed to intake food.
Blood samples ([…]) were collected at different times from the jugular vein catheter into EDTA-K2 coated tubes, Whole blood was processed by centrifugation at 3000 g for 10 min. Plasma samples were collected and kept at −80° C. freezer prior to analysis. The blood sampling time was recorded accordingly.
The dose samples of IV and PO were diluted with MeOH:H2O (4:1, v/v) to achieve the concentration of 2 μg·mL^−1, respectively. Then, 2.5 μL of the diluted samples were added with 47.5 μL blank plasma, and then were handled as the plasma sample procedure. An aliquot of 10 μL of the mixture was injected into the LC-MS/MS system.

[6] = read-out: PI3Kδ Enzyme activity IC50
[7] = read-out: PI3Kα Enzyme activity IC50
[8] = read-out: PI3Kβ Enzyme activity IC50
[9] = read-out: PI3Kγ Enzyme activity IC50

Chain of recombinant PI3K (p110α/p85α) (P42336 whole entry): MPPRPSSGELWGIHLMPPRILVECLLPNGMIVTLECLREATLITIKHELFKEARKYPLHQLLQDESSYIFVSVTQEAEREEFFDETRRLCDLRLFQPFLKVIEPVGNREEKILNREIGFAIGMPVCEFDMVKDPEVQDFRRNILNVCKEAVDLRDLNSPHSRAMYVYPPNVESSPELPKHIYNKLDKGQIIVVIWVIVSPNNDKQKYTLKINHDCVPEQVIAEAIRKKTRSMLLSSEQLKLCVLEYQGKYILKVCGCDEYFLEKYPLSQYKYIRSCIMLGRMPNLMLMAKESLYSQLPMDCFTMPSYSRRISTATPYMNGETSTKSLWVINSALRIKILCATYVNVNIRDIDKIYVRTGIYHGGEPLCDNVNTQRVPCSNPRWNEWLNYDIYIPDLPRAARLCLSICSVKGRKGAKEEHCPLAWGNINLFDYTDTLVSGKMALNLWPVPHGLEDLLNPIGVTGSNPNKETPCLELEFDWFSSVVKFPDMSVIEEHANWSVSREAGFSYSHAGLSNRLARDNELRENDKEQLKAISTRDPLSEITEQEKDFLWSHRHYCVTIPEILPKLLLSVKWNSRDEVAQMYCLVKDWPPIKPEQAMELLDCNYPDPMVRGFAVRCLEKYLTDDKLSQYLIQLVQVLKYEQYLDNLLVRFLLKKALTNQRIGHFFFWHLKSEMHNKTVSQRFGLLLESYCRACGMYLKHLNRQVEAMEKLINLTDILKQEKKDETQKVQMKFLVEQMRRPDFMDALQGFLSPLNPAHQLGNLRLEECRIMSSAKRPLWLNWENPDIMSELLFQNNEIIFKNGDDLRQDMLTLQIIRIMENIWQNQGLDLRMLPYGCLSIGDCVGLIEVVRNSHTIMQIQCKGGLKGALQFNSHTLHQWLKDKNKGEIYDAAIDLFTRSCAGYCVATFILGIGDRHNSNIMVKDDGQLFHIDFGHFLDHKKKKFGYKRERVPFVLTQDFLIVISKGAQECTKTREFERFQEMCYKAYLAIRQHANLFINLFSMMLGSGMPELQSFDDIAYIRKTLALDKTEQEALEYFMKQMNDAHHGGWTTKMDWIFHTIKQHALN
Chain of recombinant PI3K (p110α/p85α) (P27986 whole entry partner): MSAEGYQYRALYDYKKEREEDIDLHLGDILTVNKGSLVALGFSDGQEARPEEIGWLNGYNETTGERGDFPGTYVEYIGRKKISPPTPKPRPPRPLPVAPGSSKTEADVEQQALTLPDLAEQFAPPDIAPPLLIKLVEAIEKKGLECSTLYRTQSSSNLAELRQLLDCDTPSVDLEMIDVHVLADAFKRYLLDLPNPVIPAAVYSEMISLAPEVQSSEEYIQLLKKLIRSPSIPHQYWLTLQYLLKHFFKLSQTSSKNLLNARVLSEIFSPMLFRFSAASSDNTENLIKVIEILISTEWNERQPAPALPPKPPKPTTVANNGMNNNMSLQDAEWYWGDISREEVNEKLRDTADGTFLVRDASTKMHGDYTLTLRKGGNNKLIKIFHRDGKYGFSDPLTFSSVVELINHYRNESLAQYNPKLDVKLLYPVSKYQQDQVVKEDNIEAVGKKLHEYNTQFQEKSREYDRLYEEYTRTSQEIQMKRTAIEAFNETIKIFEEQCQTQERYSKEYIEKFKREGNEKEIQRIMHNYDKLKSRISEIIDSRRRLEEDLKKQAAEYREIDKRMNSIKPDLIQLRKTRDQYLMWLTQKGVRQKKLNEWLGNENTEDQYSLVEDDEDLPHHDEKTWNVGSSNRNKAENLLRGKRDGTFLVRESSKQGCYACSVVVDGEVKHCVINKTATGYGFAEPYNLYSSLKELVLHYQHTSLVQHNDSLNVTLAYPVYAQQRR
Chain of PI3K (p110γ) (P48736 whole entry): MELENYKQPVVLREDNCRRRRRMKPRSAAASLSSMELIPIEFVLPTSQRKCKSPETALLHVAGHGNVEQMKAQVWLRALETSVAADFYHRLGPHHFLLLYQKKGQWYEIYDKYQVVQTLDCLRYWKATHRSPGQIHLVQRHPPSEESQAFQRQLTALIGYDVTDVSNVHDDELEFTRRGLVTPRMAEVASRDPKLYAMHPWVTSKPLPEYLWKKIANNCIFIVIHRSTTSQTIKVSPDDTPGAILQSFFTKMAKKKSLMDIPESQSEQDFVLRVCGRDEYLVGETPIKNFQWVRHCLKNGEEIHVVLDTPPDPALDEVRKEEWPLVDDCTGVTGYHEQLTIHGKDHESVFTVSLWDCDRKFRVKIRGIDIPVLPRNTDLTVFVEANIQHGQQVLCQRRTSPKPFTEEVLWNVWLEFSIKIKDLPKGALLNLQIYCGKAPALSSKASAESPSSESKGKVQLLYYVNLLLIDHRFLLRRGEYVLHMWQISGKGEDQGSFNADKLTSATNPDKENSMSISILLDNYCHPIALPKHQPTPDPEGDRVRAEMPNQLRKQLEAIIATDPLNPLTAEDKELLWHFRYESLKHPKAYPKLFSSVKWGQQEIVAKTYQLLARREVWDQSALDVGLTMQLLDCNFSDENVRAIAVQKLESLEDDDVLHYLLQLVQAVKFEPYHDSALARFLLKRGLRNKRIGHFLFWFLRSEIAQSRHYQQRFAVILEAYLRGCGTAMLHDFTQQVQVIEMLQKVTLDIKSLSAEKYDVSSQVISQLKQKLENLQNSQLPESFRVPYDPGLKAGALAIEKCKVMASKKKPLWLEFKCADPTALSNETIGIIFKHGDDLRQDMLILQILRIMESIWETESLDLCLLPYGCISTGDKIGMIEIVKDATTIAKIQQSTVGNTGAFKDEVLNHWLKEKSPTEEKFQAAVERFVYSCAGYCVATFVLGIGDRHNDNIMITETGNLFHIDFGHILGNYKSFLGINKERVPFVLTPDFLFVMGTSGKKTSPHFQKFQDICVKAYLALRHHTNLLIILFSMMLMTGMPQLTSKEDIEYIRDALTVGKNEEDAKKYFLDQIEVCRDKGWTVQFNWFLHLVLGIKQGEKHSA
Chain of recombinant PI3K (p110δ/p85α) (O00329 whole entry): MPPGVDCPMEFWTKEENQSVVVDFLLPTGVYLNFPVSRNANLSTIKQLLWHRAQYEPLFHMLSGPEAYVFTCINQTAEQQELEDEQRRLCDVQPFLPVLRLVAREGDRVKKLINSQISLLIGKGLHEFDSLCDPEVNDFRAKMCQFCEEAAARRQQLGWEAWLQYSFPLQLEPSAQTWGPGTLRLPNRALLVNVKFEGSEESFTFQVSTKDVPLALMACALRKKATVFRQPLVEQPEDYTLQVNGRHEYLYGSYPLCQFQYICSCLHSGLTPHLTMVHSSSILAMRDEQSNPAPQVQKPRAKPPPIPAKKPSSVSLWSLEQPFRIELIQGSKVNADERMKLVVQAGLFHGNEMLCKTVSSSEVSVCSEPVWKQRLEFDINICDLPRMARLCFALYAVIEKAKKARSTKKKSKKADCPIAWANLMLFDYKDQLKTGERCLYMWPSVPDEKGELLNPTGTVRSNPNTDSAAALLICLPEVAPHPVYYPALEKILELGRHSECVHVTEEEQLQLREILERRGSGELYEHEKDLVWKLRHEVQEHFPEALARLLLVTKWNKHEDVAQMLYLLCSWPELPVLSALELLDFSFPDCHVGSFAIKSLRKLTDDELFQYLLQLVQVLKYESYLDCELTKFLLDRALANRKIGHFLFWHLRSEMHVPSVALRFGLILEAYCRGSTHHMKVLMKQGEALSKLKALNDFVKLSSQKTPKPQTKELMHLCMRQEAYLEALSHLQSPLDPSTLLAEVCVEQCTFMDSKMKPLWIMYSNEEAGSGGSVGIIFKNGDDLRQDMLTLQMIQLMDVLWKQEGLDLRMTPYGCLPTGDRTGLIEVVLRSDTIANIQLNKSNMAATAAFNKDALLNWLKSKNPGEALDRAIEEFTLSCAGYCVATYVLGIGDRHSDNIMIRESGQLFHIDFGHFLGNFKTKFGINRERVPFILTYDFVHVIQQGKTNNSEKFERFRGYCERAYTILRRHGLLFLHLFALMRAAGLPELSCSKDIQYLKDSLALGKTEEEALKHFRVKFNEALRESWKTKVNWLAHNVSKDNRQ
Chain of recombinant PI3K (p110δ/p85α) (P27986 whole entry partner): as the sequence (P27986 whole entry partner) above
Chain of PI3K (p110β/p85α) (P42338 whole entry): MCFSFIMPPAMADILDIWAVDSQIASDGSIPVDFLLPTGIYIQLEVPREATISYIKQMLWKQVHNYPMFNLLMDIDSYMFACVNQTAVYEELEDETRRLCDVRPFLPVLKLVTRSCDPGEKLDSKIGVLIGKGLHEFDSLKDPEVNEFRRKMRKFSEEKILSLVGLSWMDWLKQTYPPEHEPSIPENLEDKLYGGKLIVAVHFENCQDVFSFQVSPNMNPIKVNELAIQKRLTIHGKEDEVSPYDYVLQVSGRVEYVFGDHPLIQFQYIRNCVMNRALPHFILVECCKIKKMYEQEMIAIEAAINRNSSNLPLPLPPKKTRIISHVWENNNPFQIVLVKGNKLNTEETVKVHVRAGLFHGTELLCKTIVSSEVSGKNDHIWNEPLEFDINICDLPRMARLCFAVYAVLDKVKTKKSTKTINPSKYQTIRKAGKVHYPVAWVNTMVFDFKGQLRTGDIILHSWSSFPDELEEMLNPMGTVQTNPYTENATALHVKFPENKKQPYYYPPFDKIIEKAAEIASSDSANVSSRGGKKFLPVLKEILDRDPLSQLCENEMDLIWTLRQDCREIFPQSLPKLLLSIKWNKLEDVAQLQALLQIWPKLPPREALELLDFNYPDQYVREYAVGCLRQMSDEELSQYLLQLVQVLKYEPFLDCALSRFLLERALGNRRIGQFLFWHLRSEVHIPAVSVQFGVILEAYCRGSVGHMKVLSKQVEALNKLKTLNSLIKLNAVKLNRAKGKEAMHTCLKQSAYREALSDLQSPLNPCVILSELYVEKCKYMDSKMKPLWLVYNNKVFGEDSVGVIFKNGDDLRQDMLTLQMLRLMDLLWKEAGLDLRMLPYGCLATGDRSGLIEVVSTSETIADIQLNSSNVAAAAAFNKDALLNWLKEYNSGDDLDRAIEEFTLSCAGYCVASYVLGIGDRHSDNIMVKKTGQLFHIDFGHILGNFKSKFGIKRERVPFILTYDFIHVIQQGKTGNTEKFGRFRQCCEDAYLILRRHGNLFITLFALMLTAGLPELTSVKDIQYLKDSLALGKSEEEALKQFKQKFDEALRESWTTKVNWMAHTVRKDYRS
Chain of PI3K (p110β/p85α) (P27986 whole entry partner): as the sequence (P27986 whole entry partner) above

For `CC(C)Oc1c(C(C)c2nc(Cl)c3c(N)nccn23)cc(Cl)c(F)c1C1CNC(=O)C1` (single isomer, unassigned) [Compound 48B, 4-(3-(1-(8-amino-1-chloroimidazo[1,5-a]pyrazin-3-yl)ethyl)-5-chloro-6-fluoro-2-isopropoxyphenyl)pyrrolidin-2-one], the IC50 ([1]; PI3Kδ Enzyme activity IC50) was 0.31 nM, the IC50 ([2]; PI3Kα Enzyme activity IC50) was 1300 nM and the IC50 ([3]; PI3Kβ Enzyme activity IC50) was 1200 nM. The IC50 ([4]; PI3Kγ Enzyme activity IC50) was 630 nM, the AUC(0-inf) ([5]; 1 mg/kg, IV (1 mpk)) was 425 ng·h/mL and the clearance ([5]; 1 mg/kg, IV (1 mpk)) was 39.2 mL/min/kg. It also gave a half-life ([5]; 1 mg/kg, IV (1 mpk)) of 1.4 h, a Vd ([5]; 1 mg/kg, IV (1 mpk), read-out: VdSS) of 4.3 L/kg and an AUC(0-inf) ([5]; 5 mg/kg, PO (5 mpk)) of 1000 ng·h/mL. The Cmax ([5]; 5 mg/kg, PO (5 mpk)) was 254 ng/mL, the Tmax ([5]; 5 mg/kg, PO (5 mpk)) was 0.8 h and the bioavailability ([5]; 5 mg/kg, PO (5 mpk)) was 47%. The half-life ([5]; 5 mg/kg, PO (5 mpk)) was 2.1 h.
`Cc1nc([C@@H](C)c2cc(Cl)c(F)c(-c3ccc(C(N)=NO)nc3)c2OC(C)C)n2ccnc(N)c12` [Compound 60] gave an IC50 [1, 6] of 1.6 nM, an IC50 [2, 7] of 4300 nM and an IC50 [3, 8] of 4200 nM. It also gave an IC50 [4, 9] of 2800 nM.
Compound `Cc1nc([C@@H](C)c2cc(Cl)c(F)c(-c3ccc(C(=O)N4CCC(O)CC4)nc3)c2OC(C)C)n2ccnc(N)c12` [Compound 61, (S)-(5-(3-(1-(8-amino-1-methylimidazo[1,5-a]pyrazin-3-yl)ethyl)-5-chloro-6-fluoro-2-isopropoxyphenyl)pyridin-2-yl)(4-hydroxypiperidin-1-yl)methanone] has an IC50 [1, 6] of 0.58 nM, an IC50 [2, 7] of 2900 nM and an IC50 [3, 8] of 6100 nM. For the same compound, the IC50 [4, 9] was 3800 nM.
`Cc1nc([C@@H](C)c2cc(Cl)c(F)c(-c3ccc(C(=O)NCCO)nc3)c2OC(C)C)n2ccnc(N)c12` [Compound 62, (S)-5-(3-(1-(8-amino-1-methylimidazo[1,5-a]pyrazin-3-yl)ethyl)-5-chloro-6-fluoro-2-isopropoxyphenyl)-N-(2-hydroxyethyl)picolinamide] showed an IC50 [1, 6] of 0.82 nM, an IC50 [2, 7] of 5200 nM and an IC50 [3, 8] of 3600 nM. It also gave an IC50 [4, 9] of 2600 nM.
`Cc1nc([C@@H](C)c2cc(Cl)c(F)c(-c3ccc(C(=O)N4CC(O)C4)nc3)c2OC(C)C)n2ccnc(N)c12` [Compound 63, (S)-(5-(3-(1-(8-amino-1-methylimidazo[1,5-a]pyrazin-3-yl)ethyl)-5-chloro-6-fluoro-2-isopropoxyphenyl)pyridin-2-yl)(3-hydroxyazetidine-1-yl)methanone] gave an IC50 [1, 6] of 0.56 nM, an IC50 [2, 7] of 2600 nM and an IC50 [3, 8] of 2300 nM. The IC50 [4, 9] was 2400 nM.
Work on `Cc1nc([C@@H](C)c2cc(Cl)c(F)c(-c3ccc(C(=O)N4CC[C@@H](O)C4)nc3)c2OC(C)C)n2ccnc(N)c12` [Compound 64, (5-(3-((S)-1-(8-amino-1-methylimidazo[1,5-a]pyrazin-3-yl)ethyl)-5-chloro-6-fluoro-2-isopropoxyphenyl)pyridin-2-yl)((R)-3-hydroxypyrrolidin-1-yl)methanone] yielded an IC50 [1, 6] of 0.37 nM, an IC50 [2, 7] of 1400 nM and an IC50 [3, 8] of 1600 nM. It also gave an IC50 [4, 9] of 2100 nM.
`Cc1nc([C@@H](C)c2cc(Cl)c(F)c(-c3ccc(C(=O)N4CC(C(=O)O)C4)nc3)c2OC(C)C)n2ccnc(N)c12` [Compound 65, (S)-1-(5-(3-(1-(8-amino-1-methylimidazo[1,5-a]pyrazin-3-yl)ethyl)-5-chloro-6-fluoro-2-isopropoxyphenyl)picolinoyl)azetidine-3-carboxylic Acid] showed an IC50 [1, 6] of 0.71 nM, an IC50 [2, 7] of 5400 nM and an IC50 [3, 8] of 1200 nM. For the same compound, the IC50 [4, 9] was 1600 nM.
With `Cc1nc([C@@H](C)c2cc(Cl)c(F)c(-c3ccc(C(=O)NC4(CO)CC4)nc3)c2OC(C)C)n2ccnc(N)c12` [Compound 66, (S)-5-(3-(1-(8-amino-1-methylimidazo[1,5-a]pyrazin-3-yl)ethyl)-5-chloro-6-fluoro-2-isopropoxyphenyl)-N-(1-(hydroxymethyl)cyclopropyl)picolinamide] the IC50 [1, 6] was 0.72 nM, the IC50 [2, 7] was 4100 nM and the IC50 [3, 8] was 3400 nM. The IC50 [4, 9] was 2600 nM.
`Cc1nc([C@@H](C)c2cc(Cl)c(F)c(-c3ccc(C(=O)N4CCC[C@H]4C(=O)O)nc3)c2OC(C)C)n2ccnc(N)c12` [Compound 67, (5-(3-((S)-1-(8-amino-1-methylimidazo[1,5-a]pyrazin-3-yl)ethyl)-5-chloro-6-fluoro-2-isopropoxyphenyl)picolinoyl)-L-proline] gave an IC50 [1, 6] of 0.47 nM, an IC50 [2, 7] of 5200 nM and an IC50 [3, 8] of 460 nM. For the same compound, the IC50 [4, 9] was 1200 nM.
With `Cc1nc([C@@H](C)c2cc(Cl)c(F)c(-c3ccc(C(=O)NC4(C(=O)O)CC4)nc3)c2OC(C)C)n2ccnc(N)c12` [Compound 68, (S)-1-(5-(3-(1-(8-amino-1-methylimidazo[1,5-a]pyrazin-3-yl)ethyl)-5-chloro-6-fluoro-2-isopropoxyphenyl)picolinamido)cyclopropane-1-carboxylic Acid] the IC50 [1, 6] was 0.33 nM, the IC50 [2, 7] was 3400 nM and the IC50 [3, 8] was 400 nM. For the same compound, the IC50 [4, 9] was 960 nM.
For `Cc1nc([C@@H](C)c2cc(Cl)c(F)c(-c3ccc(C(=O)N4CCC[C@@H]4C(=O)O)nc3)c2OC(C)C)n2ccnc(N)c12` [Compound 69, (5-(3-((S)-1-(8-amino-1-methylimidazo[1,5-a]pyrazin-3-yl)ethyl)-5-chloro-6-fluoro-2-isopropoxyphenyl)picolinoyl)-D-proline], the IC50 [1, 6] was 0.71 nM, the IC50 [2, 7] was 7100 nM and the IC50 [3, 8] was 610 nM. For the same compound, the IC50 [4, 9] was 620 nM.
Work on `Cc1nc([C@@H](C)c2cc(Cl)c(F)c(-c3ccc(C(=O)NC(C)(C)C(=O)O)nc3)c2OC(C)C)n2ccnc(N)c12` [Compound 70, (S)-2-(5-(3-(1-(8-amino-1-methylimidazo[1,5-a]pyrazin-3-yl)ethyl)-5-chloro-6-fluoro-2-isopropoxyphenyl)picolinamido)-2-methylpropanoic Acid] yielded an IC50 [1, 6] of 0.33 nM, an IC50 [2, 7] of 4400 nM and an IC50 [3, 8] of 540 nM. The IC50 [4, 9] was 840 nM.
`Cc1nc([C@@H](C)c2cc(Cl)c(F)c(-c3ccc(C(=O)N4CCC(F)(F)CC4)nc3)c2OC(C)C)n2ccnc(N)c12` [Compound 71] gave an IC50 [1, 6] of 0.96 nM, an IC50 [2, 7] of 4700 nM and an IC50 [3, 8] of 2700 nM. The IC50 [4, 9] was 3200 nM.
